Test results reported in patent US12544370B2, “Methods for cancer therapy” (ASCENTAGE PHARMA (SUZHOU) CO., LTD., priority 2018, dated 2026).

Tests used:
[1] = system: Ba/F3 cells having BCR-ABL^T315I
[2] = target: Ba/F3 containing BCR-ABL mutation E255V/T315I (Homo sapiens, UniProt P00519, E255V/T315I, cells depend on it); settings: read-out: Antiproliferation Effect (IC50)
Description: (§1) Ba/F3 cells stably expressing BCR-ABL (F359V, H396R, E255K, Y253H, T315I, F317L) mutations were provided by the Institute of Life and Health, Guangzhou Academy of Sciences.
(§2) 1. The mutated Ba/F3 cell line stably expressing BCR-ABL (E255V, T315M, Y253H/E255V, Y253H/T315I, Y253H/F359V, T315I/F317L, F317L/F359V) mutation was constructed by electro-transformation method, the Ba/F3 cell line stably expressing the BCR-ABL (E255V/T315I, T315I/F359V) mutation was constructed by lentivirus infection method.
(§3) 2. Effect of drugs on the proliferation of BaF3 cells stably transfected with BCR-ABL single mutation or complex mutation by WST assay
(§4) The dilution was used as a cell blank control (excluding the sample to be tested, which was added to the cells). In addition, a negative control (excluding the sample to be tested and cells) was prepared. In addition to the negative control wells, 100 μl of complete medium cell suspension was added to each well. The dilution was added to the negative control wells at 100 μl/well. 3 repeated wells were set in the experiment. […] 20 μl of CCK-8 detection solution (Shanghai Life iLab Biotech Co., LTD, Cat #D3100L4057) was added to each well, incubating at 37° C. for 2 hours in a CO2 incubator. The OD value was measured at A450 nm by a microplate reader.
(§5) The percentage of cell viability was calculated using the following formula: (O.D. test well-O.D. negative control well)/(O.D. cell control well-O.D. negative control well)×100
(§6) The IC50 was calculated using a non-linear regression data analysis method of Graphpad Prism 6.0 software ([…]).

[3] = target: Ba/F3 containing BCR-ABL mutation T315I/F317L (Homo sapiens, UniProt P00519, T315I/F317L, cells depend on it); settings: read-out: Antiproliferation Effect (IC50)
Description: as §1, §2, §3, §4, §5, §6

[4] = target: Ba/F3 containing BCR-ABL mutation E255K (Homo sapiens, UniProt P00519, E255K, cells depend on it); settings: read-out: Antiproliferation Effect (IC50)
Description: as §1, §2, §3, §4, §5, §6

[5] = target: Ba/F3 containing BCR-ABL mutation F359V (Homo sapiens, UniProt P00519, F359V, cells depend on it); settings: read-out: Antiproliferation Effect (IC50)
Description: as §1, §2, §3, §4, §5, §6

[6] = target: Ba/F3 containing BCR-ABL mutation Y253H/T315I (Homo sapiens, UniProt P00519, Y253H/T315I, cells depend on it); settings: read-out: Antiproliferation Effect (IC50)
Description: as §1, §2, §3, §4, §5, §6

[7] = target: Ba/F3 containing BCR-ABL mutation F317L (Homo sapiens, UniProt P00519, F317L, cells depend on it); settings: read-out: Antiproliferation Effect (IC50)
Description: as §1, §2, §3, §4, §5, §6

[8] = target: Ba/F3 containing BCR-ABL mutation T315I/F359V (Homo sapiens, UniProt P00519, T315I/F359V, cells depend on it); settings: read-out: Antiproliferation Effect (IC50)
Description: as §1, §2, §3, §4, §5, §6

[9] = target: Ba/F3 containing BCR-ABL mutation Y253H (Homo sapiens, UniProt P00519, Y253H, cells depend on it); settings: read-out: Antiproliferation Effect (IC50)
Description: as §1, §2, §3, §4, §5, §6

[10] = target: Ba/F3 containing BCR-ABL mutation T315I (Homo sapiens, UniProt P00519, T315I, cells depend on it); settings: read-out: Antiproliferation Effect (IC50)
Description: as §1, §2, §3, §4, §5, §6

[11] = target: Ba/F3 containing BCR-ABL mutation Y253H/F359V (Homo sapiens, UniProt P00519, Y253H/F359V, cells depend on it); settings: read-out: Antiproliferation Effect (IC50)
Description: as §1, §2, §3, §4, §5, §6

[12] = target: Ba/F3 containing BCR-ABL mutation T315M (Homo sapiens, UniProt P00519, T315M, cells depend on it); settings: read-out: Antiproliferation Effect (IC50)
Description: as §1, §2, §3, §4, §5, §6

[13] = target: Ba/F3 containing BCR-ABL mutation E255V (Homo sapiens, UniProt P00519, E255V, cells depend on it); settings: read-out: Antiproliferation Effect (IC50)
Description: as §1, §2, §3, §4, §5, §6

[14] = system: CRKL phosphorylation in PBMCs, a biomarker of BCR-ABL inhibition; assay: Phase 1 trial, CRKL phosphorylation in PBMCs (Example 2); format: in vivo, human; settings: 53 evaluable patients
Description: The eligible patients received treatments until disease progression or intolerable toxicities. The primary efficacy endpoint in the CML AP and CP patients, was complete hematological response (CHR) and major cytogenetic response (MCyR) respectively, MCyR includes partial cytogenetic response (PCyR) and complete cytogenetic response (CCyR). Blood samples were collected at various time points on Day 1-2 and Day 27-28 during cycle 1 for PK analyses.

In the case of `Cc1ccc(C(=O)Nc2ccc(CN3CCN(C)CC3)c(C(F)(F)F)c2)cc1C#Cc1cnc2[nH]ncc2c1` [compound of formula (I-A), 3-(2-(1H-pyrazolo[3,4-b]pyridin-5-yl)ethynyl)-4-methyl-N-(4-((4-methylpiperazin-1-yl)methyl)-3-(trifluoromethyl)phenyl)-benzamide], the “survival rate of isogenic leukemia mice” value ([1]; Ba/F3 BCR-ABL T315I) is reported as “significantly improved the survival rate”, the “survival of tumor bearing mice (FIG. 8)” value ([1]; oral q2d or q3d, dose-dependent manner, imatinib qd as control) is reported as “significantly prolonged the survival” and the GI50 [2] is reported as 0.026 ± 0.011 µM. The GI50 [3] was 0.114 ± 0.009 µM, the GI50 [4] was 0.022 ± 0.013 µM and the GI50 [5] was 0.281 ± 0.187 µM. For the same compound, the GI50 [6] was 0.111 ± 0.001 µM, the GI50 [7] was 0.008 ± 0.003 µM and the GI50 [8] was 0.007 ± 0.001 µM. For the same compound, the GI50 [9] was 0.007 ± 0.001 µM, the GI50 [10] was 0.024 ± 0.01 µM and the GI50 [11] was 0.1 ± 0.081 µM. The GI50 [12] was 0.217 ± 0.131 µM, the GI50 [13] was 0.0135 ± 0.001 µM and the “reduction of CRKL phosphorylation in PBMCs” value [14] was “dose and time dependent”.
